# Measurements published in patent US10962541B2 (priority 2014, dated 2021).
# Tests used:
# RhoA [1] = assay type: cell-based
# RhoA [2] = assay type: cell-based, monkey
# Rac1 = target: T1, Rac1 (Homo sapiens, UniProt P63000); assay: G-trap assay validation, active Rac1 in HeLa cells; assay type: cell-based; details: calpeptin-mediated activation of RhoA
# T1 construct: endogenous in cells; host or cells: HeLa (ATCC)
# [3] = system: polarized endothelial cells; assay: Cell barrier function and viral infection in polarized endothelial cells; assay type: cell-based; details: unpublished results
# Rap1 = assay type: cell-based, monkey
compound,measurement,setting,value
CCN(CC)CCCC(C)Nc1nc(C)cc(Nc2ccc3nc(C)cc(N)c3c2)n1 (stereo not shown) [NSC23766],RhoA activity,RhoA [1],elevated relative to resting cells
same,activation of RhoA relative to resting cells,RhoA [1],> 5 fold
same,RhoA-GTP above EGF stimulation alone,RhoA [2],1.3 fold
same,RhoA-GTP increase above basal levels,RhoA [2],2 fold
COc1ccc(C2CC(c3ccccc3)=NN2c2ccc(S(N)(=O)=O)cc2)cc1 (stereo not shown) [CID2950007],RhoA activity,RhoA [1],no effect on RhoA activity
CCCC[C@@H](C=O)NC(=O)[C@H](CC(C)C)NC(=O)OCc1ccccc1 [calpeptin],Rac1 activity,Rac1,concomitant decrease in Rac1 activity
same,increase in active RhoA,RhoA [2],> 2 fold
C[C@@H](N)[C@H]1CC[C@H](C(=O)Nc2ccncc2)CC1 [Y27632],loss of cell barrier function,[3],blocks the loss of cell barrier function
same,viral infection,[3],limits viral infection
COC(=O)[C@H](CCSC)NC(=O)c1ccc(NC[C@@H](N)CS)cc1-c1ccccc1 [FTI277],increase in active Rap1,Rap1,~2 fold
